Data from patent publication US20230026808A1, “COMPOUNDS, COMPOSITIONS, AND METHODS FOR TREATING ISCHEMIA-REPERFUSION INJURY AND/OR LUNG INJURY” (YALE UNIVERSITY, priority 2019, published 2023).

How the values were obtained:
Type in all cases: cell-based
[1] = test system: primary cultured mouse lung endothelial cells; experiment: H2O2 on primary cultured mouse lung endothelial cells (TEER, AKT phosphorylation); details: H2O2 at low concentrations
[2] = test system: mouse primary lung endothelial cells; experiment: Bi-layer co-culture of neutrophils with endothelial cells, AKT phosphorylation; details: fMLP-stimulated neutrophils; SOD 60 U/ml, catalase 100 U/ml
Experimental: Mouse primary lung endothelial cells (MLEC) were first plated on the outside of the polycarbonate membrane (25,000 cells/cm^2) of the Transwell inserts (24-well type, 0.4-μm pore size, Corning, Inc. 353095), and placed upside down in the wells of the culture plate. After the cells had adhered, the Transwell inserts were inverted and reinserted into the wells of the plate. The medium was replaced 24 h after seeding with serum-free medium. SOD (60 U/ml), catalase (100 U/ml), or mock were added to the lower chambers 2 h later for 30 min. Mouse neutrophils stimulated with 5 μM fMLP were then plated on the top surface of the insert (6×10^6 cells/cm^2) for 30 min. At the end of the incubation period, neutrophils on the top side of the inserts were removed by cotton swabs, and endothelial cells on the other side of the inserts were lysed with SDS-PAGE sample buffer for Western analysis.

[3] = test system: mouse pulmonary endothelial cells; experiment: TEER of mouse endothelial cells co-cultured with neutrophils; details: fMLP-stimulated neutrophils; catalase 100 U/ml
Experimental: ECIS 8W10E+ arrays (Applied BioPhysics) were coated with 10 μg/ml of poly-D-lysine (PDL) and washed with sterile water. Complete EBM-2 media (300 μl) was added to each well for a quick impedance background check. Subsequently, immortalized mouse pulmonary endothelial cells were seeded in a density of 60,000 cells/well in 300 μl EBM-2 medium in the coated arrays and incubated them at 37° C. in a CO2 incubator. Electrical resistance of the cell layer was recorded continuously on an ECIS system (Applied BioPhysics) until a stable resistance of approximately 600-700 ohms was achieved, after which media were removed from wells and replaced with 100 μl of assay buffer (Hanks buffer with Ca^2+ and Mg^2+0.25% BSA). Cells were allowed to re-equilibrate at 37° C. for 2 hours, before 1 μl of SOD (60 U/ml), catalase (100 U/ml), or mock were added to wells for 30 min followed by addition of 50 μl of mouse neutrophils in assay buffer containing 5 μM fMLP. Data were collected real-time throughout the experiment. All ECIS measurements were analyzed at an AC frequency of 4 kHz, which was identified as the most sensitive frequency for this cell type by frequency scans along an entire frequency range (1 kHz-64 kHz). The TEER values were normalized against those co-cultured with WT neutrophils treated with mock.

## OO [H2O2]
[1]
  AKT phosphorylation: stimulates AKT phosphorylation
  trans-endothelial electrical resistance (TEER): enhanced trans-endothelial electrical resistance (TEER)

## catalase
[2]
  phospho-AKT elevation by co-cultured MAP3K2/3 DKO neutrophils: abrogated
[3]
  difference in TEER between DKO and WT neutrophil co-culture: abrogated
